Active and inactive are the calls of the source. The rule behind the calls is not given here.
Assays:
[1] = Antiproliferative activity against human U87 cells after 72 hrs by MTT assay; assay type: functional, cell-based, U-87MG ATCC; details: U-87 MG
SGC-7901 = assay: Antiproliferative activity against human SGC7901 cells after 72 hrs by MTT assay; assay type: functional, cell-based; details: SGC-7901, 72 h
HeLa = assay: Antiproliferative activity against human HeLa cells after 72 hrs by MTT assay; assay type: functional, cell-based
[2] = Induction of NO production at 100 uM in presence of 5.0 mM L-cysteine incubated for 120 mins measured every 15 mins by Griess assay
H22 [3] = assay: Antitumor activity against […] cells xenografted in ICR mouse assessed as tumor growth inhibition at 60 mg/kg, iv qd for 3 weeks relative to control; assay type: functional; details: 504 h, read-out: TGI
Mus musculus [4] = assay: Toxicity in ICR mouse xenografted with […] cells assessed as body weight at 60 mg/kg, iv administered qd for 3 weeks (reference value: 22.9 +/- 0.4 g); assay type: organism-based; details: in vivo, 504 h
[5] = Cell cycle arrest in human U87 cells assessed as accumulation at G2 phase at 1 nM after 72 hrs by propidium iodide staining based flow cytometry (reference value: 18.86%); assay type: functional, U-87MG ATCC
[6] = Induction of apoptosis in human U87 cells assessed as early apoptotic cells at 2 nM measured after 72 hrs by Annexin V-APC/7-AAD staining based flow cytometry (reference value: 3.82%); assay type: functional, U-87MG ATCC
[7] = Cell cycle arrest in human U87 cells assessed as accumulation at S phase at 1 nM after 72 hrs by propidium iodide staining based flow cytometry (reference value: 27.03%); assay type: functional, U-87MG ATCC
[8] = Cell cycle arrest in human U87 cells assessed as accumulation at S phase at 2 nM after 72 hrs by propidium iodide staining based flow cytometry (reference value: 27.03%); assay type: functional, U-87MG ATCC
Homo sapiens [9] = species: Homo sapiens; assay: Inhibition of PI3K/Akt activation in human U87 cells assessed as decrease in Bcl-2 protein expression after 72 hrs by Western blot method; assay type: cell-based
L02 = assay: Cytotoxicity against human LO2 cells assessed as reduction in cell viability after 72 hrs by MTT assay; assay type: cell-based; details: L02, 72 h
[10] = Induction of apoptosis in human U87 cells assessed as early apoptotic cells at 0.5 nM measured after 72 hrs by Annexin V-APC/7-AAD staining based flow cytometry (reference value: 3.82%); assay type: functional, U-87MG ATCC
[11] = Induction of apoptosis in human U87 cells assessed as necrotic cells at 2 nM measured after 72 hrs by Annexin V-APC/7-AAD staining based flow cytometry (reference value: 0.44%); assay type: functional, U-87MG ATCC
U-87MG ATCC = assay: Antiproliferative activity against human U87 cells after 72 hrs in presence of NO scavenger hemoglobin/PTIO by MTT assay; assay type: functional, cell-based
[12] = Induction of apoptosis in human U87 cells assessed as early apoptotic cells at 1 nM measured after 72 hrs by Annexin V-APC/7-AAD staining based flow cytometry (reference value: 3.82%); assay type: functional, U-87MG ATCC
[13] = Induction of apoptosis in human U87 cells assessed as necrotic cells at 0.5 nM measured after 72 hrs by Annexin V-APC/7-AAD staining based flow cytometry (reference value: 0.44%); assay type: functional, U-87MG ATCC
[14] = Induction of apoptosis in human U87 cells assessed as viable cells at 0.5 nM measured after 72 hrs by Annexin V-APC/7-AAD staining based flow cytometry (reference value: 92.71%); assay type: functional, U-87MG ATCC; details: U-87 MG, read-out: Activity
[15] = Induction of apoptosis in human U87 cells assessed as late apoptotic cells at 0.5 nM measured after 72 hrs by Annexin V-APC/7-AAD staining based flow cytometry (reference value: 3.02%); assay type: functional, U-87MG ATCC
[16] = Cell cycle arrest in human U87 cells assessed as accumulation at S phase at 0.5 nM after 72 hrs by propidium iodide staining based flow cytometry (reference value: 27.03%); assay type: functional, U-87MG ATCC
[17] = Induction of apoptosis in human U87 cells assessed as late apoptotic cells at 1 nM measured after 72 hrs by Annexin V-APC/7-AAD staining based flow cytometry (reference value: 3.02%); assay type: functional, U-87MG ATCC
[18] = Cell cycle arrest in human U87 cells assessed as accumulation at G1 phase at 0.5 nM after 72 hrs by propidium iodide staining based flow cytometry (reference value: 54.11%); assay type: functional, U-87MG ATCC
[19] = Cell cycle arrest in human U87 cells assessed as accumulation at G1 phase at 2 nM after 72 hrs by propidium iodide staining based flow cytometry (reference value: 54.11%); assay type: functional, U-87MG ATCC
Mus musculus [20] = assay: Toxicity in ICR mouse xenografted with […] cells assessed as body weight at 30 mg/kg, iv administered qd for 3 weeks (reference value: 22.9 +/- 0.4 g); assay type: organism-based; details: in vivo, 504 h
[21] = Induction of apoptosis in human U87 cells assessed as viable cells at 1 nM measured after 72 hrs by Annexin V-APC/7-AAD staining based flow cytometry (reference value: 92.71%); assay type: functional, U-87MG ATCC; details: U-87 MG, read-out: Activity
[22] = molecular target: RAC-alpha serine/threonine-protein kinase (Homo sapiens) (UniProt P31749); assay: Inhibition of Akt phosphorylation in human U87 cells after 72 hrs by Western blot method; assay type: cell-based
[23] = Induction of apoptosis in human U87 cells assessed as late apoptotic cells at 2 nM measured after 72 hrs by Annexin V-APC/7-AAD staining based flow cytometry (reference value: 3.02%); assay type: functional, U-87MG ATCC
H22 [24] = assay: Antitumor activity against […] cells xenografted in iv dosed ICR mouse assessed as tumor growth inhibition administered qd for 3 weeks; assay type: functional, organism-based
[25] = Cell cycle arrest in human U87 cells assessed as accumulation at G1 phase at 1 nM after 72 hrs by propidium iodide staining based flow cytometry (reference value: 54.11%); assay type: functional, U-87MG ATCC
[26] = Induction of apoptosis in human U87 cells assessed as viable cells at 2 nM measured after 72 hrs by Annexin V-APC/7-AAD staining based flow cytometry (reference value: 92.71%); assay type: functional, U-87MG ATCC; details: U-87 MG, read-out: Activity
[27] = Cell cycle arrest in human U87 cells assessed as accumulation at G2 phase at 2 nM after 72 hrs by propidium iodide staining based flow cytometry (reference value: 18.86%); assay type: functional, U-87MG ATCC
Homo sapiens [28] = species: Homo sapiens; assay: Inhibition of PI3K/Akt activation in human U87 cells assessed as increase in pro-apoptotic Bax protein expression after 72 hrs by Western blot method; assay type: cell-based
H22 [29] = assay: Antitumor activity against […] cells xenografted in ICR mouse assessed as tumor growth inhibition at 30 mg/kg, iv qd for 3 weeks relative to control; assay type: functional; details: 504 h, read-out: TGI
Homo sapiens [30] = species: Homo sapiens; assay: Inhibition of PI3K/Akt activation in human U87 cells assessed as increase in caspase-3 level after 72 hrs by Western blot method; assay type: cell-based
[31] = Induction of apoptosis in human U87 cells assessed as necrotic cells at 1 nM measured after 72 hrs by Annexin V-APC/7-AAD staining based flow cytometry (reference value: 0.44%); assay type: functional, U-87MG ATCC
[32] = Cell cycle arrest in human U87 cells assessed as accumulation at G2 phase at 0.5 nM after 72 hrs by propidium iodide staining based flow cytometry (reference value: 18.86%); assay type: functional, U-87MG ATCC

Sequence of RAC-alpha serine/threonine-protein kinase (Homo sapiens) (P31749 whole entry): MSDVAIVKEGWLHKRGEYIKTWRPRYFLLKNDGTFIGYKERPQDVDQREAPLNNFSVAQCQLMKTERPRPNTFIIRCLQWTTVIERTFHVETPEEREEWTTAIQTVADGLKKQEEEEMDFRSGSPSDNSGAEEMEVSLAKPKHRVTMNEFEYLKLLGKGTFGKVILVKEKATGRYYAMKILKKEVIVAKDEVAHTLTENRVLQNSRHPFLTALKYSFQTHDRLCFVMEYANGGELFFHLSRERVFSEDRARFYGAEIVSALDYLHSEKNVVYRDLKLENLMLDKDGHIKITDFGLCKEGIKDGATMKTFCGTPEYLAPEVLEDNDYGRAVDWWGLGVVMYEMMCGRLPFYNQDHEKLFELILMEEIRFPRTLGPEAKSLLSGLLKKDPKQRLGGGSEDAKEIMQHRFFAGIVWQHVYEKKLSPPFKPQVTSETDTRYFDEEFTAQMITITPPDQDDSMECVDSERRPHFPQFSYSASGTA

C=C[C@]1(C)CC[C@@H](C(=C)COC(=O)[C@H](Cc2ccccc2)NC(=O)CCC(=O)OCCCCOc2no[n+]([O-])c2S(=O)(=O)c2ccccc2)C[C@H]1C(=C)C
IC50 [1]: 0.061 µM
IC50 (SGC-7901): 9.97 µM
IC50 (HeLa): 10.8 µM

C=C[C@]1(C)CC[C@@H](C(=C)COC(=O)[C@H](C)NC(=O)CCC(=O)OCCCCOc2no[n+]([O-])c2S(=O)(=O)c2ccccc2)C[C@H]1C(=C)C
IC50 [1]: 0.114 µM
IC50 (SGC-7901): 11.8 µM
IC50 (HeLa): 10.9 µM

C=C[C@]1(C)CC[C@@H](C(=C)COC(=O)[C@@H](N)CC(=O)OCCCCOc2no[n+]([O-])c2S(=O)(=O)c2ccccc2)C[C@H]1C(=C)C
IC50 [1]: 0.124 µM
Activity [2]: Active
IC50 (SGC-7901): 2.92 µM
IC50 (HeLa): 3.64 µM

C=C[C@]1(C)CC[C@@H](C(=C)COC(=O)CNC(=O)CCC(=O)OCCCCOc2no[n+]([O-])c2S(=O)(=O)c2ccccc2)C[C@H]1C(=C)C
IC50 [1]: 0.173 µM
IC50 (SGC-7901): 15.3 µM
IC50 (HeLa): 10.2 µM

C=C[C@]1(C)CC[C@@H](C(=C)COC(=O)CCC(=O)OCCCCCCOc2no[n+]([O-])c2S(=O)(=O)c2ccccc2)C[C@H]1C(=C)C
IC50 [1]: 0.154 µM
Activity [2]: inactive
IC50 (SGC-7901): 22.9 µM
IC50 (HeLa): 23.2 µM

C=C[C@]1(C)CC[C@@H](C(=C)COC(=O)CCNC(=O)CCC(=O)OCCCCOc2no[n+]([O-])c2S(=O)(=O)c2ccccc2)C[C@H]1C(=C)C
IC50 [1]: 0.058 µM
IC50 (SGC-7901): 7.78 µM
IC50 (HeLa): 8.86 µM

C=C[C@]1(C)CC[C@@H](C(=C)COC(=O)CCC(=O)OCC#CCOc2no[n+]([O-])c2S(=O)(=O)c2ccccc2)C[C@H]1C(=C)C
IC50 [1]: 0.085 µM
IC50 (SGC-7901): 4.97 µM
IC50 (HeLa): 3.78 µM

C=C[C@]1(C)CC[C@@H](C(=C)COC(=O)CCC(=O)OCCOCCOc2no[n+]([O-])c2S(=O)(=O)c2ccccc2)C[C@H]1C(=C)C
IC50 [1]: 0.024 µM
IC50 (SGC-7901): 4.66 µM
IC50 (HeLa): 5.78 µM

C=C[C@]1(C)CC[C@@H](C(=C)C)C[C@H]1C(=C)C
inhibition in vivo at 60 mg/kg (H22 [3]): 49.6%
IC50 [1]: 180 µM
Activity (Mus musculus [4]): 20 g
IC50 (SGC-7901): 236 µM
IC50 (HeLa): 214 µM

C=C[C@]1(C)CC[C@@H](C(=C)COC(=O)[C@@H]2CCCN2C(=O)CCC(=O)OCCCCOc2no[n+]([O-])c2S(=O)(=O)c2ccccc2)C[C@H]1C(=C)C
IC50 [1]: 0.055 µM
IC50 (SGC-7901): 9.49 µM
IC50 (HeLa): 11.2 µM

C=C[C@]1(C)CC[C@@H](C(=C)COC(=O)[C@@H](NC(=O)CCC(=O)OCCCCOc2no[n+]([O-])c2S(=O)(=O)c2ccccc2)[C@@H](C)CC)C[C@H]1C(=C)C
IC50 [1]: 0.01 µM
Activity [2]: Active
IC50 (SGC-7901): 3.66 µM
IC50 (HeLa): 4.25 µM

C=C[C@]1(C)CC[C@@H](C(=C)COC(=O)c2ccccc2C(=O)OCCCCOc2no[n+]([O-])c2S(=O)(=O)c2ccccc2)C[C@H]1C(=C)C
IC50 [1]: 0.081 µM
Activity [2]: inactive
IC50 (SGC-7901): 27.8 µM
IC50 (HeLa): 21.9 µM

C=C[C@]1(C)CC[C@@H](C(=C)COC(=O)CCC(=O)OCCCCOc2no[n+]([O-])c2S(=O)(=O)c2ccccc2)C[C@H]1C(=C)C
IC50 [1]: 0.007 µM
IC50 (SGC-7901): 8.76 µM
IC50 (HeLa): 10.9 µM

O=C(O)CCC(=O)OCCOc1c(S(=O)(=O)c2ccccc2)no[n+]1[O-]
IC50 [1]: 32.2 µM

C=C[C@]1(C)CC[C@@H](C(=C)COC(=O)CCC(=O)OCCOc2no[n+]([O-])c2S(=O)(=O)c2ccccc2)C[C@H]1C(=C)C
Activity [5]: 33.35%
Activity [6]: 34.63%
Activity [7]: 31.68%
Activity [8]: 25.04%
inhibition (Homo sapiens [9]): Dose-dependent effect
inhibition in vivo at 60 mg/kg (H22 [3]): 64.8%
IC50 (L02): 30.4 µM
IC50 [1]: 0.002 µM
Activity [10]: 8.16%
Activity [11]: 0.25%
Activity (U-87MG ATCC): Dose-dependent effect
Activity [12]: 25.03%
Activity [2]: Active
Activity [13]: 1.25%
viability at 0.0005 µM [14]: 80.4%
Activity [15]: 10.16%
Activity [16]: 26.69%
Activity (Mus musculus [4]): 20.9 g
Activity [17]: 9.91%
Activity [18]: 50.4%
Activity [19]: 26.96%
Activity (Mus musculus [20]): 21.6 g
viability at 0.001 µM [21]: 64.9%
inhibition [22]: Dose-dependent effect
IC50 (SGC-7901): 3.18 µM
Activity [23]: 19.07%
TGI (H22 [24]): Dose-dependent effect
Activity [25]: 34.97%
viability at 0.002 µM [26]: 46%
Activity [27]: 47.99%
inhibition (Homo sapiens [28]): Dose-dependent effect
inhibition in vivo at 30 mg/kg (H22 [29]): 50.2%
inhibition (Homo sapiens [30]): Dose-dependent effect
Activity [31]: 0.19%
Activity [32]: 22.91%
IC50 (HeLa): 4.94 µM

C=C[C@]1(C)CC[C@@H](C(=C)CO)C[C@H]1C(=C)C
IC50 [1]: 198 µM
